Values joined by “and” are separate entries in the source; they are usually repeats but may differ in a detail not shown here. Identical values can stand only once.
How the values were obtained:
[1] = target: T1, Human immunodeficiency virus type 1 protease (Human immunodeficiency virus 1, UniProt Q72874); test: Inhibitory concentration against HIV-1 protease expressed in Escherichia coli upon incubation in pH 5.5 buffer containing Abz-Thr-Ile-p-nitrophenylalanine-Phe-Gln-Arg-NH2
[2] = target: T1, Human immunodeficiency virus type 1 protease; test: Binding affinity for HIV-1 protease expressed in Escherichia coli upon incubation in pH 5.5 buffer containing Abz-Thr-Ile-p-nitrophenylalanine-Phe-Gln-Arg-NH2
Cathepsin D = Cathepsin D (Homo sapiens, UniProt P07339); test: Binding affinity af the compound towards cathepsin D

| SMILES | IC50 [1] | Ki [2] | Ki (Cathepsin D) [nM] |
| --- | --- | --- | --- |
| Cc1cccc(C)c1OCC(=O)N[C@H](Cc1cccc(Br)c1)[C@@H](O)C[C@@H](CC(C)C)S(=O)(=O)c1ccc(F)cc1 | 2000 nM | 1400 nM |  |
| O=C(N[C@H](Cc1cccc(Br)c1)[C@@H](O)C[C@@H](CCc1ccc(Cl)cc1Cl)S(=O)(=O)c1ccc(F)cc1)[C@H]1CCCO1 | > 40000 nM | > 40000 nM |  |
| O=C(N[C@@H](Cc1cccc(Br)c1)[C@H](O)C[C@H](CCc1ccc(Cl)cc1Cl)S(=O)(=O)c1ccc(F)cc1)[C@H]1CCCO1 |  | 3900 nM and 2900 nM |  |
| Cc1cccc(C)c1OCC(=O)N[C@@H](Cc1cccc(Br)c1)[C@H](O)C[C@H](CC(C)C)S(=O)(=O)c1ccc(F)cc1 | 140 nM and 85 nM | 80 nM and 45 nM |  |
| CC(C)CCS(=O)(=O)[C@@H](C)C[C@@H](O)[C@H](Cc1cccc(Br)c1)NC(=O)CCS(C)(=O)=O | > 40000 nM | > 40000 nM |  |
| COc1cc(Br)c(C(=O)N[C@@H](Cc2cccc(Br)c2)[C@H](O)C[C@H](CCc2ccc(Cl)cc2Cl)S(=O)(=O)c2ccc(F)cc2)cc1OC | 4500 nM | 3100 nM |  |
| CNc1ccc(S(=O)(=O)[C@@H](CC(C)C)C[C@@H](O)[C@H](Cc2cccc(Br)c2)NC(=O)COc2c(C)cccc2C)cc1 | 530 nM | 370 nM |  |
| Cc1cccc(C)c1OCC(=O)N[C@@H](Cc1cccc(Br)c1)[C@H](O)C[C@H](CC(C)C)S(=O)(=O)c1ccc(N(C)C)cc1 | 790 nM | 540 nM |  |
| O=C(COc1ccc(Cl)cc1Cl)N[C@@H](Cc1cccc(Br)c1)[C@H](O)C[C@H](CCc1ccc(Cl)cc1Cl)S(=O)(=O)c1ccc(F)cc1 | 10000 nM | 7000 nM |  |
| COc1cc(Br)c(C(=O)N[C@@H](Cc2cccc(Oc3ccccc3)c2)[C@@H](O)CN(CCc2ccc(Cl)cc2Cl)C(=O)CCN2C(=O)c3ccccc3C2=O)cc1OC |  |  | 0.07 |
| CC(C)CN(C[C@@H](O)[C@H](Cc1ccccc1)NC(=O)O[C@H]1CCOC1)S(=O)(=O)c1ccc(N)cc1 [AMPRENAVIR] |  | 0.06 nM |  |

From ChEMBL document CHEMBL1141123, “Hydroxyethylene sulfones as a new scaffold to address aspartic proteases: design, synthesis, and structural characterization” (J Med Chem, 2005)
